Data taken from patent US11332443B2, “Derivatives of halo quinabactin” (THE REGENTS OF THE UNIVERSITY OF CALIFORNIA, priority 2015, dated 2022).

Columns and labels:
Type in all cases: biochemical
[1] = target: T1, PYR1-HAB1 (Arabidopsis thaliana, UniProt O49686); assay: PP2C activity assay, PYR1-HAB1 inhibition; settings: for activity at 0.2 µM: 200 nM test compound, 100 nM HAB1 PP2C, 200 nM receptor, read-out: % Inhibition of PYR/PYL-HAB1 at 200 nM: PYR1; for IC50: dose response in triplicate, non-linear regression
T1 construct: 6xHis (N); made in house; host or cells: E. coli BL21[DE3]pLysS (stated for GST-HAB1)
T1 sequence (O49686 1-191): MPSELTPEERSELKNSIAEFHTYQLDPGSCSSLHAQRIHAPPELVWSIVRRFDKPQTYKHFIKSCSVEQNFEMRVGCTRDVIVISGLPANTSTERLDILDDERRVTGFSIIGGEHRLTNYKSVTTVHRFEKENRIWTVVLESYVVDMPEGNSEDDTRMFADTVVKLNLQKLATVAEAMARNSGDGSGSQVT
T1 sequence (Q9CAJ0 23-511 partner): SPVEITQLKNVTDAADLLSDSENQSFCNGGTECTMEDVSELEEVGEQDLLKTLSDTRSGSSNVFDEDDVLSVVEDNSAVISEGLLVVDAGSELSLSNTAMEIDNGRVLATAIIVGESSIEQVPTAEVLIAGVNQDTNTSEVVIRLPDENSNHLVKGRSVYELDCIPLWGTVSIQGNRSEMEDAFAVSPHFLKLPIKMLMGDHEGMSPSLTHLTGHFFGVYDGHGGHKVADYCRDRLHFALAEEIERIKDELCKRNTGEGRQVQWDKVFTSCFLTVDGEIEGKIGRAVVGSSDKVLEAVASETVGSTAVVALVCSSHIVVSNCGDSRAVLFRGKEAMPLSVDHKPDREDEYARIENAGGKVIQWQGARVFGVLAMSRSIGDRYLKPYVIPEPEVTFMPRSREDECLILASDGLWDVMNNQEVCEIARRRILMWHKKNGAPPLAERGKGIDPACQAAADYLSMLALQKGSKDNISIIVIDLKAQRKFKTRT
Text: (§1) The protein HAB1, a type 2 protein phosphatase (PP2C), is inhibited by PYR/PYL proteins in dependence of abscisic acid or other agonists. The potency of an agonist correlates with the level of inhibition of the PP2C, and therefore the IC50 (receptor-HAB1) can be used to compare the relative activity of different chemical analogues. Since inhibition of PP2C correlates to inhibition of seed-germination and increase in plant water-use efficiency, it serves as a powerful tool to quantify biological potential of a chemical acting as an analogue of abscisic acid.
(§2) HAB1 and PYL proteins were expressed and purified as described in Park et al. ((2009) Science 324(5930):1068-1071), with minor modifications. GST-HAB1 was produced by expression in BL21[DE3]pLysS host cells with an expression clone containing the HAB1 cDNA cloned into pGex-2T. Transformed E. coli cells were pre-cultured overnight, transferred to LB medium and cultured at 30° C. to culture A600 of ˜0.5 OD units. The culture was then cooled on ice and MnCl2 added to 4 mM and IPTG added to 0.3 mM. After 16 hours incubation at 15° C., cells were harvested and recombinant proteins were purified on glutathione agarose as described in Park et al. To obtain 6×His-PYL receptor fusion proteins, we used expression constructs previously described by Okamoto et al. 2013, (PNAS 110(29): 12132-12137).
(§3) PP2C activity assays using recombinant receptors and PP2Cs were carried out as follows: purified proteins were pre-incubated in 160 μl assay buffer containing (100 mM Tris-HCl-pH7.9, 100 mM NaCl, 3 μg bovine serum albumin and 0.1% 2-mercaptoethanol), 1 mM MnCl2 with carrier solvent (DMSO), quinabactin or quinabactin analogs (compounds of the present invention) for 30 minutes at room temperature. Reactions were started by adding 40 μL of a reaction solution containing 25 mM 4-nitrophenyl phosphate in assay buffer, after which absorbance measurements were immediately collected (405 nm) using a Wallac plate reader. […] Inhibition is indicated by reduced PP2C activity, which is expressed as a percentage of the control PP2C activity values that were obtained from assays containing carrier solvent instead but no test compound.

[2] = target: T2, PYL2-HAB1 (Arabidopsis thaliana, UniProt O80992); assay: PP2C activity assay, PYL2-HAB1 inhibition; settings: for percent inhibition at 0.2 µM: 200 nM test compound, 100 nM HAB1 PP2C, 200 nM receptor, read-out: % Inhibition of PYR/PYL-HAB1 at 200 nM: PYL2; for IC50: dose response in triplicate, non-linear regression
T2 construct: 6xHis (N); made in house; host or cells: E. coli BL21[DE3]pLysS (stated for GST-HAB1)
T2 sequence (O80992 1-190): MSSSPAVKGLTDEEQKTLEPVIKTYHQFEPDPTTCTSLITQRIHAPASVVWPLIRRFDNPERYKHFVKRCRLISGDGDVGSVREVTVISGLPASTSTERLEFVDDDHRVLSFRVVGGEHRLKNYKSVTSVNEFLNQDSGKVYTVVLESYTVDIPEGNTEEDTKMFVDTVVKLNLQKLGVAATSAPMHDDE
T2 sequence (Q9CAJ0 23-511 partner): T1 sequence (Q9CAJ0 23-511 partner)
Text: as §1, §2, §3

[3] = target: T3, PYL1-HAB1 (Arabidopsis thaliana, UniProt Q8VZS8); assay: PP2C activity assay, PYL1-HAB1 inhibition; settings: 200 nM test compound, 100 nM HAB1 PP2C, 200 nM receptor; read-out: % Inhibition of PYR/PYL-HAB1 at 200 nM: PYL1
T3 construct: 6xHis (N); made in house; host or cells: E. coli BL21[DE3]pLysS (stated for GST-HAB1)
T3 sequence (Q8VZS8 1-221): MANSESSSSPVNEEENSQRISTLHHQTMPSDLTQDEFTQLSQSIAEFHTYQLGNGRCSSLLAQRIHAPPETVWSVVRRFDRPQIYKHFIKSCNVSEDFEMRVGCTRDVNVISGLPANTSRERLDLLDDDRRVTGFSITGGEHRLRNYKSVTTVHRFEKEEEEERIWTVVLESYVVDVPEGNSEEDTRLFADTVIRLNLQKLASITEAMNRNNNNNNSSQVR
T3 sequence (Q9CAJ0 23-511 partner): T1 sequence (Q9CAJ0 23-511 partner)
Text: as §1, §2
PP2C activity assays using recombinant receptors and PP2Cs were carried out as follows: purified proteins were pre-incubated in 160 μl assay buffer containing (100 mM Tris-HCl-pH7.9, 100 mM NaCl, 3 μg bovine serum albumin and 0.1% 2-mercaptoethanol), 1 mM MnCl2 with carrier solvent (DMSO), quinabactin or quinabactin analogs (compounds of the present invention) for 30 minutes at room temperature. Reactions were started by adding 40 μL of a reaction solution containing 25 mM 4-nitrophenyl phosphate in assay buffer, after which absorbance measurements were immediately collected (405 nm) using a Wallac plate reader. Reactions contained 100 nM HAB1 PP2C and 200 nM receptor and 200 nM test compound. Inhibition is indicated by reduced PP2C activity, which is expressed as a percentage of the control PP2C activity values that were obtained from assays containing carrier solvent instead but no test compound.

SMILES | activity at 0.2 µM [1] | percent inhibition at 0.2 µM [2] | activity at 0.2 µM [3] | IC50 [1] | IC50 [2]
CCCN1C(=O)CCc2cc(NS(=O)(=O)Cc3ccc(Br)cc3F)cc(F)c21 [HQ5] | 42.9% | 51.8% | 18.2% |  | 
Cc1ccc(CS(=O)(=O)Nc2cc(F)c3c(c2)C(C)CC(=O)N3C(C)C)cc1 (stereo not drawn) [HQ32] |  |  |  | 408 nM | 40 nM
CCN1C(=O)CC(C)c2cc(NS(=O)(=O)Cc3ccc(C#N)cc3)cc(F)c21 (stereo not drawn) [HQ49] |  |  |  | 405 nM | 112 nM
CCN1C(=O)CC(C)c2cc(NS(=O)(=O)c3ccccc3)cc(F)c21 (stereo not drawn) [HQ45] |  |  |  | > 10000 nM | 7730 nM
CCCN1C(=O)CCc2cc(NS(=O)(=O)Cc3ccc(F)cc3F)cc(F)c21 [HQ4] | 61.5% | 69.3% | 46.1% |  | 
CCCN1C(=O)CCc2cc(NS(=O)(=O)Cc3cccc(F)c3F)cc(F)c21 [HQ7] | 53.9% | 67.4% | 31% |  | 
CCCN1C(=O)CCc2cc(NS(=O)(=O)Cc3ccc(OC(F)(F)F)cc3)cc(F)c21 [HQ15] | 54.8% | 70.1% | 47.6% |  | 
CCN1C(=O)CC(C)c2cc(NS(=O)(=O)Cc3ccc(C)nc3)cc(F)c21 (stereo not drawn) [HQ55] |  |  |  | > 10000 nM | 1600 nM
CCCN1C(=O)CCc2cc(NS(=O)(=O)Cc3ccc(Cl)cc3)cc(F)c21 [HQ18] | 35% | 46.7% | 34.2% | 63.3 nM | 102 nM
CCCN1C(=O)CCc2cc(NS(=O)(=O)Cc3ccc(C)cc3)c(F)cc21 [HQ47, N-(7-fluoro-2-oxo-1-propyl-3,4-dihydroquinolin-6-yl)-1-(p-tolyl)methanesulfonamide] |  |  |  | 172 nM | 182 nM
CCCN1C(=O)CCc2cc(NS(=O)(=O)Cc3cc(F)ccc3F)cc(F)c21 [HQ6] | 57.9% | 57.4% | 35.1% |  | 
CCN1C(=O)CC(C)c2cc(NS(=O)(=O)Cc3ccc(C)cc3)cc(F)c21 (stereo not drawn) [HQ30, N-(1-ethyl-8-fluoro-4-methyl-2-oxo-3,4-dihydroquinolin-6-yl)-1-(p-tolyl)methanesulfonamide] |  |  |  | 39.6 nM | 11 nM
CCN1C(=O)CCc2cc(NS(=O)(=O)Cc3ccc(C)cc3)cc(F)c21 [HQ29] |  |  |  | 17.2 nM | 83 nM
CCCN1C(=O)CCc2cc(NS(=O)(=O)Cc3ccc(F)cc3Cl)cc(F)c21 [HQ13] | 110% | 94.1% | 88.2% |  | 
CCCN1C(=O)CCc2cc(NS(=O)(=O)Cc3ccc(C(F)(F)F)nc3)cc(F)c21 [HQ19] | 82.7% | 82.3% | 73.4% |  | 
CCN1C(=O)CC(C)c2cc(NS(=O)(=O)Cc3ccc(Cl)nc3)cc(F)c21 (stereo not drawn) [HQ56] |  |  |  | 1250 nM | 486 nM
CCN1C(=O)CC(C)c2cc(NS(=O)(=O)Cc3ccc(C)c(F)c3)cc(F)c21 (stereo not drawn) [HQ52] |  |  |  | 444 nM | 46 nM
CCCN1C(=O)CCc2cc(NS(=O)(=O)Cc3ccc(C)cc3)cc(C#N)c21 [HQ41] |  |  |  | 967 nM | 1450 nM
CCN1C(=O)CC(C)c2cc(NS(=O)(=O)Cc3ccc(C#N)cc3F)cc(F)c21 (stereo not drawn) [HQ42] |  |  |  | 589 nM | 247 nM
